Source: US20250368640A1 (BIOFRONT LTD, priority 2022, published 2025)
Read-outs that look alike come from different tables or passages of the source.

What was measured:
[1] = biological target: T1, HPK1 (Homo sapiens (Human), UniProt Q92918); assay: HPK1 enzyme inhibition assay (ADP-Glo); assay type: biochemical
Procedure: HPK1 Enzyme Inhibition Assay
The compound was dissolved in 100% DMSO at the concentration of 10 mM. The HPK1 protein was purchased from Signal Chem (M23-11G-10). 2.5 μL per well of 2×HPK1 protein was added to assay plate containing the test compound, centrifuged at 1500 rpm for 1 minute, and then incubated at 25° C. for 60 minutes. MBP protein was purchased from Signal Chem (M42-51N) and ATP was purchased from Promega (V9102). The two were added 2.5 μL per well mixture of 2×MBP (0.2 ug/ul) and ATP (20 μM), centrifuged at 1500 rpm for 1 minute, then incubated at 25° C. for 60 minutes. Then added 5 μL of ADP-Glo from Promega (V9102) to the assay plate and depleted the unconsumed ATP for 60 minutes. Then centrifuged at 1500 rpm for 1 minute and incubated at 25° C. for 60 minutes. Finally, 10 μL of the kinase assay reagent from Promega (V9102) was added to the assay plate to convert ADP to ATP, centrifuged at 1500 rpm for 1 minute, incubate at 25° C. for 40 minutes. After 40 minutes incubation, the […] was determined. Based on the results, the IC50 value of the compound was calculated.
Target sequence in this assay (Q92918 1-346 limits assumed): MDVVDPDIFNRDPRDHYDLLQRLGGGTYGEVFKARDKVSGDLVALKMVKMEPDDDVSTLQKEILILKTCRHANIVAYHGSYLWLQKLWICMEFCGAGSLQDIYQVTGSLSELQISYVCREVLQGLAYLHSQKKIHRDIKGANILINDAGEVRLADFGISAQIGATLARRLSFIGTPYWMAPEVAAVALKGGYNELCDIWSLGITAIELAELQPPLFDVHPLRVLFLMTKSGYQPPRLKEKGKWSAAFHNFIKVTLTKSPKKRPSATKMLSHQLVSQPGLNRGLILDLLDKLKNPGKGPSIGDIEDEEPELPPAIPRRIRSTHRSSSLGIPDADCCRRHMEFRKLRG

[2] = biological target: FLT3-ITD (Homo sapiens, UniProt P36888, ITD); assay: FLT3-ITD enzyme inhibition assay; assay type: biochemical
Chain of FLT3-ITD (P36888 whole entry, looked up, change not shown): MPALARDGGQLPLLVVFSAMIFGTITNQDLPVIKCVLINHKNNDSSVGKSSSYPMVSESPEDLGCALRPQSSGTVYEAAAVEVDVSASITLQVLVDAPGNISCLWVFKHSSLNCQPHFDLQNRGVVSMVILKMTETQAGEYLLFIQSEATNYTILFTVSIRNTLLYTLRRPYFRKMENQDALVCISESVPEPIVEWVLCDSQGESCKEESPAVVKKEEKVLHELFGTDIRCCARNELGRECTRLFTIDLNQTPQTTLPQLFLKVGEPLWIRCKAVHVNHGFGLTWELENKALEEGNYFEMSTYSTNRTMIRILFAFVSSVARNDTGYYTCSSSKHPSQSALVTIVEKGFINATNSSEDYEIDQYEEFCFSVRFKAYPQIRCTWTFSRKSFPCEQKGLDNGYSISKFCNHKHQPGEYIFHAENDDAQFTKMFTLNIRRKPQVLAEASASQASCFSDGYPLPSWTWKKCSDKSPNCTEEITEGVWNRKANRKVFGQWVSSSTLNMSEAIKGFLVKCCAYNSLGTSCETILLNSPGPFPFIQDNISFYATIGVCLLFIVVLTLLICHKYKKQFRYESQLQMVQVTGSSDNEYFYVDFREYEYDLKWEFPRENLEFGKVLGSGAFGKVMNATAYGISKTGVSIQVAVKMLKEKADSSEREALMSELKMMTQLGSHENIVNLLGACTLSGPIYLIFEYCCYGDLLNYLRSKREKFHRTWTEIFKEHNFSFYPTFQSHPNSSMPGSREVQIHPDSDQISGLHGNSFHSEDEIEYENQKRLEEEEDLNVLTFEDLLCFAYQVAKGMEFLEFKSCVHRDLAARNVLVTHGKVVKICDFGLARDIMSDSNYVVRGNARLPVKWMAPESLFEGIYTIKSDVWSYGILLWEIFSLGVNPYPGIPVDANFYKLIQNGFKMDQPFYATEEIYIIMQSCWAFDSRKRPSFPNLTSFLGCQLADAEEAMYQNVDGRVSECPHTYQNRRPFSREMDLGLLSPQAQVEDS
Procedure: FLT3-ITD Enzyme Inhibition Assay
The compound was dissolved in 100% DMSO at the concentration of 10 mM. The FLT3-ITD protein was purchased from Invitrogen (PV6191). 10 μL per well of 2.5×FLT3-ITD protein was added to assay plate containing the test compound, centrifuged at 1000 rpm for 1 minute, and then incubated at 25° C. for 10 minutes. Peptide 2 was purchased from GL Biochem (112394) and ATP was purchased from Promega (V9102). The two were added 15 μL per well mixture of 1.67× peptide 2 (final conc. is 3 μM) and ATP (final conc. is 97.2 μM), centrifuged at 1000 rpm for 1 minute, then incubated at 25° C. for 40 minutes. Then added 30 μL of stop buffer (100 mM HEPES pH7.5, 0.015% Brij-35, 0.2% Coating Reagent 3, 50 mM EDTA) to the assay plate and centrifuged at 1000 rpm for 1 minute. the product was determined. Based on the results, the IC50 value of the compound was calculated.

[3] = biological target: T1, HPK1; assay: HPK1 degradation assay (western blot, human PBMC); assay type: cell-based; conditions: for Dmax: read-out: HPK1 Dmax
Procedure: Frozen human PBMC were purchased from Shanghai OribioTech and recovered with culture medium (RMPI1640) prior to use. The cells were then incubated with a variety of concentrations of compound. After incubation, the cells were collected and lysed. The protein concentration was determined by BCA protein assay kit from Thermo (23227). The HPK1 protein level was determined by western blots, using anti-human HPK1 polyclonal antibody from CST (4472S). Proteins were loaded into each well of the pre-casting gels and subjected to electrophoretic separation by SDS-PAGE. The protein resolved by SDS-PAGE were transferred to PVDF, blocked by 5% skim milk, and probed with anti-human HPK1 antibody or β-actin antibody from CST (3700S), using standard western blotting procedure.
Target sequence in this assay (Q92918 whole entry): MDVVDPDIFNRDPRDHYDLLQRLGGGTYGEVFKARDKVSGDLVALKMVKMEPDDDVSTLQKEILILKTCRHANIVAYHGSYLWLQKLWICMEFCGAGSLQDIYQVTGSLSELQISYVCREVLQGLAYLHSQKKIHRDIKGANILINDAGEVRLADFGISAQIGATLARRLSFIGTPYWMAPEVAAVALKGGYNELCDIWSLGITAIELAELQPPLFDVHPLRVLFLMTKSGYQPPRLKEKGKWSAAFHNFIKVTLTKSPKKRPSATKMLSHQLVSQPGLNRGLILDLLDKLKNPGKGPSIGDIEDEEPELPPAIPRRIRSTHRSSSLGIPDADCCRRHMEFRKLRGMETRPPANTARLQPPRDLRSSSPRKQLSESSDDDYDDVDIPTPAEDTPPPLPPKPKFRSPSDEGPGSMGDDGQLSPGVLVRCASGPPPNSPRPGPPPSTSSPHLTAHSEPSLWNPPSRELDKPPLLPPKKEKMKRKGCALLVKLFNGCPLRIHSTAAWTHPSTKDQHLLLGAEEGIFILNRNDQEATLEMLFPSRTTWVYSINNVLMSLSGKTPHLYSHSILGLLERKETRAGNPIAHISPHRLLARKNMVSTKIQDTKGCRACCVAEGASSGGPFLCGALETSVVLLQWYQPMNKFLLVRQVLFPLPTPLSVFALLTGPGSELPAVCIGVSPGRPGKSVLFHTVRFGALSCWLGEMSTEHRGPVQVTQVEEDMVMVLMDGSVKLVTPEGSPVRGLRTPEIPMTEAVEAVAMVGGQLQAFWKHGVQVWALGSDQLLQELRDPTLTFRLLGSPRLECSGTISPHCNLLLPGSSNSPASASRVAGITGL

[4] = tested on: MEK 1/2; assay: MEK 1/2 degradation assay (western blot); assay type: cell-based, human
Procedure: MEK 1/2 Degradation Assay
(§1) MV-411 cells were cultured with medium (IMDM) and IMR32 cells were cultured with medium (MEM) prior to use. Cells were then incubated with a variety of concentrations of compound. After incubation, the cells were collected and lysed. The protein concentration was determined by BCA protein assay kit from Thermo (23227). The […] protein level was determined by western blots, using anti-human MEK 1/2 polyclonal antibody from CST (9122S). Proteins were loaded into each well of the pre-casting gels and subjected to electrophoretic separation by SDS-PAGE. The protein resolved by SDS-PAGE were transferred to PVDF, blocked by 5% skim milk, and probed with anti-human MEK1/2 antibody or β-actin antibody from CST (3700S) and COX IV antibody from CST (4850S), using standard western blotting procedure.

[5] = tested on: FLT3; assay: FLT3 degradation assay (western blot, MV-411 cells); assay type: cell-based, human
Procedure: as §1, with “(IMDM)” for “(IMDM) and IMR32 cells were cultured with medium (MEM)”, “FLT3 monoclonal” for “MEK 1/2 polyclonal”, “(3462S).” for “(9122S).”, “FLT3” for “MEK1/2”, “-actin” for “β-actin”, “(3700S),” for “(3700S) and COX IV antibody from CST (4850S),”

[6] = biological target: T2, Aurora A (Homo sapiens (Human), UniProt O14965); assay: Aurora A degradation assay (western blot); assay type: cell-based; conditions: for Dmax: read-out: Aurora A Dmax
T2 sequence (O14965 whole entry): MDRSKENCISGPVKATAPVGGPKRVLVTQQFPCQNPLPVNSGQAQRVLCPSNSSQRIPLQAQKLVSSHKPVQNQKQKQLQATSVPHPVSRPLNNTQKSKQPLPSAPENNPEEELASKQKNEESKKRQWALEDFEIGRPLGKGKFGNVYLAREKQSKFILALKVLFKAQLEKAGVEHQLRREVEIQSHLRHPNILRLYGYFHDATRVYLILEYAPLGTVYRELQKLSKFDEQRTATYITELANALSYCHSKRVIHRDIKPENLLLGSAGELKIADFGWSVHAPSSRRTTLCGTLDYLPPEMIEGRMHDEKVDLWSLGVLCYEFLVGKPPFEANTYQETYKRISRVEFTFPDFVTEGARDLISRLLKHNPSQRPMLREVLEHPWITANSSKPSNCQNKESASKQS
Procedure: Aurora A Degradation Assay
IMR32 cells were cultured with medium (MEM), Huh7 cells were cultured with medium (DMEM) and HL-60 cells were culture with medium (IMDM) prior to use. Cells were then incubated with a variety of concentrations of compound. After incubation, the cells were collected and lysed. The protein concentration was determined by BCA protein assay kit from Thermo (23227). The AURKA protein level was determined by western blots, using anti-human AURKA monoclonal antibody from CST (14475S). Proteins were loaded into each well of the pre-casting gels and subjected to electrophoretic separation by SDS-PAGE. The protein resolved by SDS-PAGE were transferred to PVDF, blocked by 5% skim milk, and probed with anti-human AURKA antibody or β-actin antibody from CST (3700S) or COX IV antibody from CST (4850S), using standard western blotting procedure.

[7] = biological target: T2, Aurora A; assay: Aurora A enzyme inhibition assay; assay type: biochemical
Procedure: Aurora A Enzyme Inhibition Assay
The compound was dissolved in 100% DMSO at the concentration of 10 mM. The Aurora A protein was purchased from Carna (05-101). 10 μL per well of 2.5×Aurora A protein was added to assay plate containing the test compound, centrifuged at 1000 rpm for 1 minute, and then incubated at 25° C. for 10 minutes. Peptide 21 was purchased from GL Biochem (116370) and ATP was purchased from Promega (V9102). The two were added 15 μL per well mixture of 1.67× peptide 21 (final conc. is 3 μM) and ATP (final conc. is 14.58 μM), centrifuged at 1000 rpm for 1 minute, then incubated at 25° C. for 40 minutes. Then added 30 μL of stop buffer (100 mM HEPES pH7.5, 0.015% Brij-35, 0.2% Coating Reagent 3, 50 mM EDTA) to the assay plate and centrifuged at 1000 rpm for 1 minute. the product was determined. Based on the results, the IC50 value of the compound was calculated.

[8] = enzyme inhibition, read-out: FLT3-ITD IC50
[9] = protein degradation, human PBMC, read-out: HPK1 DC50
[10] = protein degradation, human PBMC
[11] = protein degradation, MV-411 or IMR32 cells
[12] = protein degradation, MV-411 or IMR32 cells; read-out: MEK 1/2 DC50
[13] = protein degradation, IMR32, Huh7 or HL-60 cells, read-out: Aurora A DC50
[14] = protein degradation, IMR32, Huh7 or HL-60 cells
[15] = protein degradation, human PBMC, class symbol, read-out: HPK1 DC50 (nM)/Dmax (%)
[16] = protein degradation, class symbol, read-out: FLT3 DC50 (nM)/Dmax (%)
[17] = read-out: MEK 1/2 DC50; protein degradation, MV-411 or IMR32 cells
[18] = read-out: FLT3 DC50, protein degradation
[19] = protein degradation, IMR32, Huh7 or HL-60 cells, class symbol, read-out: Aurora A DC50 (nM)/Dmax (%)

IC50 [1] [nM]	IC50 [2, 8] [nM]	Dmax [3, 10] [%]	DC50 [4, 12] [nM]	DC50 ([5]; protein degradation, read-out: FLT3 DC50) [nM]	Dmax [6, 14] [%]	IC50 [7] [nM]	DC50 [3, 15] [nM]	DC50 [5, 16] [nM]	DC50 [6, 19] [nM]	Compound	DC50 [3, 9] [nM]	MEK 1/2 Dmax [4, 11] [%]	FLT3 Dmax ([5]; protein degradation) [%]	DC50 [6, 13] [nM]	IC50 [2] [nM]	Dmax [3] [%]	DC50 [4, 17] [nM]	DC50 [5, 18] [nM]	Dmax [6] [%]
2.9	17.4	91	1	8.7	50	16.6				CCc1c[nH]c2ncc(-c3cccc(N4CCCN(CCN5CCN(c6ccc(C7CCC(=O)NC7=O)cc6)CC5)C4=O)c3)c(Cl)c12 (stereo not shown) [Example 17]	2.3	47	80	1					
13.6	20.8		49		50	21.2	> 10000	> 10000		O=C1CCC(N2Cc3ccc(N4CCC(CN5CCCN(c6cccc(-c7cnc8[nH]cc(C9CC9)c8c7Cl)c6)C5=O)CC4)cc3C2=O)C(=O)N1 (stereo not shown) [Example 11]		30		9					
2.5	5.4	52	1		74	10.6		> 10000		CCc1c[nH]c2ncc(-c3cccc(N4CCCN(CCN5CCN(c6ccc(NC7CCC(=O)NC7=O)cc6F)CC5)C4=O)c3)c(Cl)c12 (stereo not shown) [Example 18]	1	74		1.1					

Continued, molecule first:

Compound	IC50 [1] [nM]	IC50 [2, 8] [nM]	Dmax [3, 10] [%]	DC50 [4, 12] [nM]	DC50 ([5]; protein degradation, read-out: FLT3 DC50) [nM]	Dmax [6, 14] [%]	IC50 [7] [nM]	DC50 [3, 15] [nM]	DC50 [5, 16] [nM]	DC50 [6, 19] [nM]	DC50 [3, 9] [nM]	MEK 1/2 Dmax [4, 11] [%]	FLT3 Dmax ([5]; protein degradation) [%]	DC50 [6, 13] [nM]	IC50 [2] [nM]	Dmax [3] [%]	DC50 [4, 17] [nM]	DC50 [5, 18] [nM]	Dmax [6] [%]
CCc1c[nH]c2ncc(-c3cccc(N4CCCN(CC5CCN(c6ccc(NC7CCC(=O)NC7=O)cc6F)CC5)C4=O)c3)c(Cl)c12 (stereo not shown) [Example 15, 3-((4-(4-((3-(3-(4-chloro-3-ethyl-1H-pyrrolo [2,3-b]pyridin-5-yl)phenyl)-2-oxotetrahydropyrimidin-1 (2H)-yl)methyl)piperidin-1-yl)-3-fluorophenyl)amino) piperidine-2,6-dione]	4.6						19.9				6	38	34	9.6	8.8	80	1	0.02	82
CCc1c[nH]c2ncc(-c3cccc(N4CCCN(CC5CCN(c6ccc7c(c6)C(=O)N(C6CCC(=O)NC6=O)C7=O)CC5)C4=O)c3)c(Cl)c12 (stereo not shown) [Example 8, 5-(4-((3-(3-(4-chloro-3-ethyl-1H-pyrrolo [2,3-b]pyridin-5-yl)phenyl)-2-oxotetrahydropyrimidin-1 (2H)-yl)methyl)piperidin-1-yl)-2-(2,6-dioxopiperidin-3-yl) isoindoline-1,3-dione]	15.7						110				85	91	95	< 20	5.7	95	82	8	95
CCc1c[nH]c2ncc(-c3cccc(N4CCCN(CCN5CCN(c6ccc7c(N8CCC(=O)NC8=O)cccc7c6)CC5)C4=O)c3)c(Cl)c12 [Example 4, 1-(6-(4-(2-(3-(3-(4-chloro-3-ethyl-1H-pyrrolo [2,3-b]pyridin-5-yl)phenyl)-2-oxotetrahydropyrimidin-1 (2H)-yl)ethyl)piperazin-1-yl)naphthalen-1-yl) dihydropyrimidine-2, 4 (1H, 3H)-dione]	17.1	24		< 1			25.2	> 10000	> 10000	> 10000		30							
CCc1c[nH]c2ncc(-c3cccc(N4CCCN(CCN5CC(c6ccc7c(c6)C(=O)N(C6CCC(=O)NC6=O)C7=O)C5)C4=O)c3)c(Cl)c12 (stereo not shown) [Example 6, 5-(1-(2-(3-(3-(4-chloro-3-ethyl-1H-pyrrolo [2,3-b]pyridin-5-yl)phenyl)-2-oxotetra hydropyrimidin-1 (2H)-yl)ethyl)azetidin-3-yl)-2-(2,6-dioxopiperidin-3-yl) isoindo line-1,3-dione]	3.1	18.4		< 1			9.9	> 10000	> 10000	> 10000		32							
CCc1c[nH]c2ncc(-c3cccc(N4CCCN(CCC5CCN(c6ccc(NC7CCC(=O)NC7=O)cc6F)CC5)C4=O)c3)c(Cl)c12 (stereo not shown) [Example 16, 3-((4-(4-(2-(3-(3-(4-chloro-3-ethyl-1H-pyrrolo [2,3-b]pyridin-5-yl)phenyl)-2-oxotetrahydropyrimidin-1 (2H)-yl)ethyl)piperidin-1-yl)-3-fluorophenyl)amino) piperidine-2,6-dione]	5.5						40.8				100	75	17	4.6	12.3	64	4.6	115	75
